We go through eleven compounds from ChEMBL document CHEMBL1201862, “PubChem BioAssay data set” (2004).

Usually GI50 stands for the concentration at which growth is held to half of that of the control.

Some test systems named below: MOLT-4; UO-31; NCI-H460; DU-145; OVCAR-5; HT-29; RPMI-8226; A549; U-251; A498; SK-OV-3; 786-0; T47D; OVCAR-8; OVCAR-3; CCRF-CEM; RXF 393; CAKI-1; NCI-H522; OVCAR-4.
Holding throughout (test): DTP human tumour cell line panel, 48 h

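These data come from cells grown in 96-well plates and exposed to compound for 48 hours at five concentrations. The concentration for 50% growth inhibition is given as GI50.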 Calls of active or inactive are those of the source. Cut-off read from the data, not from the text of the source: active = GI50 up to about 1.1 µM and inactive = higher.

Take `CCCCCCOc1ccc(NC2=C(Cl)C(=O)c3cccnc3C2=O)cc1`: the GI50 in the test on MOLT-4 was 1.87 µM (inactive); in the test on UO-31, 1.14 µM (inactive); with NCI-H460, 1.79 µM (inactive); in the test on DU-145, 1.55 µM (inactive); with OVCAR-5, 2.4 µM (inactive); with HT-29, 2.62 µM (inactive). Also, the GI50 in the test with RPMI-8226 was 0.684 µM (active); in the test on A549 it was 1.95 µM (inactive); in the test on U-251, 2.29 µM (inactive); with A498 it was > 10 µM (inactive); with SK-OV-3, 4.35 µM (inactive); in the test on 786-0 it was 1.48 µM (inactive). For the same compound, the GI50 in the test with T47D is 1.62 µM (inactive); in the test on OVCAR-8 it was 2.03 µM (inactive); in the test with OVCAR-3 it was 1.35 µM (inactive); in the test on CCRF-CEM, 1.65 µM (inactive); in the test on RXF 393, 1.37 µM (inactive).

As to `COC(=O)c1cc(=O)nc2sc3cccc(C)c3n12`, the GI50 in the test on CAKI-1 was 24.6 µM (inactive); in the test on MOLT-4, 28.6 µM (inactive); with NCI-H522, 23.2 µM (inactive); with NCI-H460, 68.7 µM (inactive); in the test with DU-145 it was > 100 µM (inactive); in the test with OVCAR-5, 38 µM (inactive). For the same compound, the GI50 in the test with HT-29 was 28.5 µM (inactive); with RPMI-8226, 22 µM (inactive); in the test on A549, 46.9 µM (inactive); with U-251, 22.2 µM (inactive); in the test on SK-OV-3, > 100 µM (inactive); with 786-0, 21.3 µM (inactive). In addition, the GI50 in the test on T47D was 37.8 µM (inactive); with OVCAR-4 it was > 100 µM (inactive); with OVCAR-8, 20.9 µM (inactive); with OVCAR-3 it was 23 µM (inactive); in the test with CCRF-CEM it was 20.2 µM (inactive); in the test with RXF 393, 56.1 µM (inactive).

In the case of `COc1ccc(-c2nc(-c3cnccn3)n(C3OC(CO)C(O)C(O)C3O)n2)cc1` (centres undefined), the GI50 with MOLT-4, in the test on UO-31, in the test on NCI-H522, in the test on NCI-H460, with DU-145 and with OVCAR-5 was > 100 µM (inactive) throughout. The GI50 in the test with HT-29, in the test on RPMI-8226, in the test with A549, with U-251, with SK-OV-3 and in the test with 786-0 was > 100 µM (inactive) in each case. Also, the GI50 with T47D, in the test on OVCAR-4, in the test on OVCAR-8, in the test with OVCAR-3, with CCRF-CEM and in the test on RXF 393 was > 100 µM (inactive) each time.

With `O=[N+]([O-])C1CC/C(=N/O)c2nonc21` (centres undefined), the GI50 in the test with CAKI-1, with MOLT-4, with UO-31, with NCI-H460, in the test with DU-145 and in the test with OVCAR-5 was > 10 µM (inactive) in each case. Moreover, the GI50 in the test on HT-29, in the test on RPMI-8226, in the test on A549, in the test with U-251, in the test with A498 and with 786-0 was > 10 µM (inactive) each time. In addition, the GI50 in the test with T47D, in the test with OVCAR-4, in the test on OVCAR-8, in the test on OVCAR-3, with CCRF-CEM and in the test with RXF 393 was > 10 µM (inactive) each time.

Take `N#Cc1cc(Sc2ccc(N)c(C#N)c2)ccc1N`: the GI50 in the test with MOLT-4 is 25.4 µM (inactive); in the test with UO-31, 17.7 µM (inactive); in the test with NCI-H460, 15.5 µM (inactive); in the test on DU-145 it was 24.9 µM (inactive); in the test on OVCAR-5 it was 29.3 µM (inactive); in the test on HT-29 it was 13.6 µM (inactive). For the same compound, the GI50 in the test with RPMI-8226 is 12.8 µM (inactive); in the test on A549 it was 29.9 µM (inactive); in the test on U-251 it was 29.3 µM (inactive); in the test with A498 it was 43.8 µM (inactive); in the test with SK-OV-3, 23.1 µM (inactive); in the test with 786-0 it was 17.6 µM (inactive). Further, the GI50 in the test on T47D is 29 µM (inactive); in the test on OVCAR-4 it was 20.4 µM (inactive); in the test with OVCAR-8, 20.4 µM (inactive); in the test on OVCAR-3 it was 34.7 µM (inactive); in the test with CCRF-CEM it was 9.64 µM (inactive); in the test on RXF 393, 29.4 µM (inactive).

With `Cc1cc2c(cc1C)C(=O)C1(C2)Cc2c(ccc(C)c2C)C1=O` (centres undefined), the GI50 in the test with CAKI-1, in the test with MOLT-4, in the test on UO-31, in the test on NCI-H522, in the test on NCI-H460 and in the test on DU-145 was > 100 µM (inactive) throughout. Moreover, the GI50 in the test on OVCAR-5 is > 100 µM (inactive); in the test on RPMI-8226, > 100 µM (inactive); with A549 it was 73.6 µM (inactive); with U-251, > 100 µM (inactive); with 786-0, 89.1 µM (inactive); in the test with T47D, > 100 µM (inactive). Also, the GI50 is 75.5 µM (inactive) with OVCAR-4; 72.8 µM (inactive) with OVCAR-8; > 100 µM (inactive) in the test with OVCAR-3; > 100 µM (inactive) in the test with CCRF-CEM; 53.8 µM (inactive) with RXF 393.

On to `Cc1ccc(NC(=S)C#N)cc1Cl`, for which the GI50 is 41.3 µM (inactive) in the test on CAKI-1; 32.8 µM (inactive) in the test with MOLT-4; 68.9 µM (inactive) in the test with DU-145; 24.8 µM (inactive) in the test on OVCAR-5; 30.1 µM (inactive) in the test with HT-29; 6.79 µM (inactive) in the test with RPMI-8226. Moreover, the GI50 in the test with A549 is 23.8 µM (inactive); with U-251, 55.8 µM (inactive); in the test with A498, 26.7 µM (inactive); in the test with SK-OV-3, 26.5 µM (inactive); in the test on 786-0 it was 45.2 µM (inactive); with T47D, 32.4 µM (inactive). Also, the GI50 in the test on OVCAR-8 was 35.7 µM (inactive); in the test on OVCAR-3, 21.5 µM (inactive); in the test on CCRF-CEM, 25.5 µM (inactive); with RXF 393 it was 29.4 µM (inactive).

`CC(C)(C)[Si](C)(C)OCC1OC(n2cnc3c(N)ncnc32)C(O)C1O` (centres undefined): the GI50 in the test on CAKI-1 was > 100 µM (inactive); with MOLT-4 it was 39.6 µM (inactive); in the test with UO-31, 65.6 µM (inactive); in the test with NCI-H522 it was > 100 µM (inactive); in the test with NCI-H460 it was > 100 µM (inactive); in the test on DU-145 it was > 100 µM (inactive). Further, the GI50 was > 100 µM (inactive) in the test with OVCAR-5; > 100 µM (inactive) in the test on HT-29; 81.3 µM (inactive) in the test with RPMI-8226; > 100 µM (inactive) in the test with A549; > 100 µM (inactive) in the test on U-251; 30.7 µM (inactive) in the test on SK-OV-3. Besides, the GI50 in the test on 786-0 was > 100 µM (inactive); with T47D, 24.4 µM (inactive); with OVCAR-4, > 100 µM (inactive); with OVCAR-8, > 100 µM (inactive); in the test with OVCAR-3, 76 µM (inactive); in the test on CCRF-CEM, 95.9 µM (inactive). In addition, the GI50 in the test on RXF 393 is 36.7 µM (inactive).

On to `CCOC(=O)C1=C(Nc2cccc(OC)c2)OCC1=O`, for which the GI50 was > 100 µM (inactive) in the test with CAKI-1; > 100 µM (inactive) in the test with MOLT-4; > 100 µM (inactive) in the test on UO-31; > 100 µM (inactive) in the test on NCI-H460; 68.7 µM (inactive) in the test on DU-145; > 100 µM (inactive) with HT-29. Also, the GI50 in the test with RPMI-8226 is > 100 µM (inactive); with U-251 it was > 100 µM (inactive); in the test on A498, 27.7 µM (inactive); in the test with SK-OV-3 it was > 100 µM (inactive); in the test on 786-0 it was > 100 µM (inactive); with T47D, > 100 µM (inactive). The GI50 with OVCAR-4, with OVCAR-8, in the test with CCRF-CEM and in the test with RXF 393 was > 100 µM (inactive) each time.

Take `CC(=O)c1ccc(N2CCN(C3=CC(=O)c4c(O)ccc(O)c4C3=O)CC2)cc1`: the GI50 in the test with CAKI-1 is > 100 µM (inactive); with MOLT-4 it was 5.38 µM (inactive); in the test on UO-31, 4.42 µM (inactive); in the test with NCI-H460, 48.5 µM (inactive); in the test with DU-145 it was > 100 µM (inactive); in the test on OVCAR-5 it was > 100 µM (inactive). Further, the GI50 in the test on HT-29 is 30.2 µM (inactive); in the test on RPMI-8226, > 100 µM (inactive); with A549 it was 19 µM (inactive); in the test with U-251, 16.2 µM (inactive); in the test on A498, > 100 µM (inactive); in the test with 786-0, > 100 µM (inactive). Moreover, the GI50 with T47D was > 100 µM (inactive); in the test with OVCAR-4 it was > 100 µM (inactive); in the test on OVCAR-8 it was 13.1 µM (inactive); in the test with OVCAR-3, 39.9 µM (inactive); in the test with CCRF-CEM, 15.2 µM (inactive); in the test on RXF 393 it was 47.8 µM (inactive).

Turning to `CC(NCc1c(O)ccc2c(-c3ccccc3)cc(=O)oc12)C(=O)O` (centres undefined), the GI50 in the test with CAKI-1, with MOLT-4, in the test with UO-31, in the test on NCI-H522, in the test on NCI-H460 and in the test on DU-145 was > 100 µM (inactive) each time. Besides, the GI50 with OVCAR-5, in the test on HT-29, in the test with RPMI-8226, with A549, in the test with U-251 and in the test with SK-OV-3 was > 100 µM (inactive) in each case. Further, the GI50 with 786-0, with T47D, in the test with OVCAR-4, in the test with OVCAR-8, in the test with OVCAR-3 and with CCRF-CEM was > 100 µM (inactive) each time. Besides, in the test with RXF 393, the GI50 is > 100 µM (inactive).
